From patent US11596620B2, “Formulations with reduced oxidation” (Genentech, Inc., priority 2013, dated 2023) come the findings set out here.

This data set is described as follows: Photosensitivity screening assay (H2O2 by Amplex Ultra Red after light exposure). The format is physicochemical. To be noted: 1 mM in 20 mM histidine acetate pH 5.5, four hours of light at 250 W/m^2. As to the method: As a screening tool, antioxidant candidates were exposed to light for four hours at 250 W/m^2 and the resulting H2O2 formation was quantified by the Amplexassay. Specifically, antioxidants were prepared to 1 mM in 20 mM histidine acetate buffer at pH 5.5. The 1 mM antioxidant solutions were aliquoted into glass vials (2 mL/glass vial) and exposed to four hours of light at 250 W/m^2 in an Atlas SunTest CPS+ Xenon Test Instrument (Chicago, Ill.). Total UV dose was 90 watt-hours/square meter and total visible dose was 0.22 million lux hours over the 4-hour period. Control vials were wrapped in aluminum foil and treated similarly. The amount of hydrogen peroxide generated after exposure to light was measured using the Amplex® Ultra Red Assay (Invitrogen, Carlsbad, Calif.) following the manufacturer's recommended procedure. On addition of horseradish peroxidase (HRP), the dye reacted 1:1 stoichiometrically with H2O2, resulting in the production of fluorescent oxidation product resorufin. In this study, fluorescence readings were obtained using a Spectra Max M2 Micro-plate Reader (Molecular Devices, Sunnyvale, Calif.) with excitation and emission set at 560 nm and 590 nm, respectively. Final H2O2 concentrations were determined using a standard curve ranging from 0 μm to 20 μm.

For the molecule `N[C@@H](Cc1c[nH]c2ccccc12)C(=O)O` [L-Trp, L-tryptophan], the “(H2O2 produced by Compound)/(H2O2 produced by L-Trp)” value was 1.
